Laboratory results reported in US5098921A, “Nitro-substituted aromatic or hetero-aromatic compounds for use in cancer treatment” (National Research Development Corporation, priority 1987, dated 1992).
Like-named read-outs stand apart in the source and are kept apart here.

Columns and labels:
[1] = tested on: KHT tumour cells; assay: Survival of KHT tumour cells after sensitiser i.p. plus 10 Gy X-rays (KHT tumour implanted subcutaneously in C3H mice); type: in vivo
Method: In Table 2 comparison is made with 1-(2-nitro-1-imidazolyl)-3-(1-aziridino)-2-propanol (RSU-1069). All compounds were administered in phosphate buffered saline (PBS) at pH 7.4 except RB-6145 which was administered in PBS at pH 5.4.
The maximum does used was the maximum tolerated dose (MTD).

[2] = Toxicity to cells, 3 hours at 37° C., in air and in N2; type: cell-based; conditions: air; concentration required for a surviving fraction of 10^-1; 3 hours at 37° C.; full growth medium (bicarbonate); read-out: CAir
Method: (§1) ^(a) Toxicity is 3 hours at 37° C. Concentrations are those
(§2) required for a surviving fraction of 10^-1. Drugs were made up in ful
(§3) growth medium (buffered with bicarbonate) just before addition to cells.

[3] = tested on: cells; assay: as above; type: cell-based; conditions: for CC90: read-out: CN2; for CAir/CN2: ratio of toxic concentrations, air to N2, 180 min
Method: as §1, §2, §3

[4] = tested on: cells; assay: Sensitisation of cells, C1.6 (drugs made up in PBS at pH 7.4); type: cell-based; conditions: drugs made up in PBS at pH 7.4 just before addition to cells
From the text: ^(b) Drugs made up in PBS at pH 7.4 just before addition to cells.

[5] = tested on: KHT tumour; assay: In vivo sensitisation, scored against RSU1069 and MISO; parameters: species or system C3H mice; key to the marks not given beside the values; conditions: scoring system relative to RSU1069 and MISO
Method: (§4) (a) C3H mice in which the KHT tumour had been implanted subcutaneously were administered RB-6145 (Example 2) intraperitoneally before treatment with radiation. The time before such treatment at which the drug was administered was such that maximum enhancement was effected. The results of such treatment are set out in Table 1 with comparison to misonidazole (MISO), etanidazole (SR 2508) and pimonidazole (Ro 03-8799). In Table 2 comparison is made with 1-(2-nitro-1-imidazolyl)-3-(1-aziridino)-2-propanol (RSU-1069). All compounds were administered in phosphate buffered saline (PBS) at pH 7.4 except RB-6145 which was administered in PBS at pH 5.4.

[6] = Maximum tolerated dose (MTD); type: in vivo, C3H mice; conditions: for MTD: mouse, in vivo, ip, intraperitoneal, b203: maximum dose used was the MTD, read-out: maximum tolerated dose (MTD) = maximum dose used in Table 2
Method: as §4
The surviving fraction for 10 Gy alone is 3×10^-2. The maximum does used was the maximum tolerated dose (MTD).

[7] = Table 1, sensitiser at a dose of 200 mg/kg and 10 Gy X-rays, NONE = 1.0
[8] = Table 1, sensitiser at a dose of 200 mg/kg and 10 Gy X-rays, intraperitoneal
[9] = N2, concentration required for a surviving fraction of 10^-1, 3 hours at 37° C., full growth medium (bicarbonate)

| SMILES | CC90 at 3 h [2] [µM] | CC90 ([3]; 3 h) [µM] | CAir/CN2 [3] | EC (enhancement ratio 1.6) [4] [µM] | in vivo sensitisation [5] | enhancement ratio [1, 7] | surviving fraction [1, 8] | also measured |
| --- | --- | --- | --- | --- | --- | --- | --- | --- |
| COCC(O)Cn1ccnc1[N+](=O)[O-] (stereo not drawn) [MISO, misonidazole] | – | – | – | – | – | – | – | enhancement ratio ([1]; mouse, in vivo, 200 mg/kg): 1.5; surviving fraction ([1]; mouse, in vivo, ip, 200 mg/kg): 1.2 × 10^-2 |
| O=[N+]([O-])c1nccn1CC(O)CNCCCl (stereo not drawn) [RB-6144, 1-(2-Nitro-1-imidazolyl)-3-(2-chloroethylamino)-2-propanol] | 5000 | 350 | 15 | 250 | ++ | – | – | – |
| O=[N+]([O-])c1nccn1CC(O)CNCCBr (stereo not drawn) [RB-6145, 1-(2-Nitro-1-imidazolyl)-3-(2-bromoethylamino)-2-propanol] | 2300 | 90 | 25 | 150 | ++++ | 2.7 | 1.8 × 10^-3 | dose-for-dose sensitisation compared with RSU-1069 ([1]; 10 Gy X-rays): on a dose-for-dose basis it is the same as RSU-1069 as a sensitiser; surviving fraction ([1]; Table 2, RB-6145 0.13 mmol kg^-1 (50 mg/kg) and 10 Gy X-rays): 7.6 × 10^-3; surviving fraction ([1]; Table 2, RB-6145 0.27 mmol kg^-1 (100 mg/kg) and 10 Gy X-rays): 5.2 × 10^-3; surviving fraction ([1]; Table 2, RB-6145 0.53 mmol kg^-1 (200 mg/kg) and 10 Gy X-rays): 1.8 × 10^-3; surviving fraction ([1]; Table 2, RB-6145 0.80 mmol kg^-1 (300 mg/kg) and 10 Gy X-rays, 10 Gy alone 3×10^-2): 1.4 × 10^-3; doses that can be used compared with RSU-1069 ([6]; Table 2): Much higher doses of RB-6145 can be used; MTD [6]: 300 mg/kg |
| O=[N+]([O-])c1nccn1CC(O)CNCCI (stereo not drawn) [RB-6146, 1-(2-Nitro-1-imidazolyl)-3-(2-iodoethylamino)-2-propanol] | 2400 | 80 | 30 | 300 | – | – | – | – |
| O=[N+]([O-])c1nccn1CC(O)CNCCF (stereo not drawn) [RB-6159, 1-(2-Nitro-1-imidazolyl)-3-(2-fluoroethylamino)-2-propanol] | 35000 | – | 14 | – | – | – | – | CC90 [3, 9]: 2500 µM |
| O=[N+]([O-])c1nccn1CC(O)CN1CC1 (stereo not drawn) [RSU-1069, 1-(2-nitro-1-imidazolyl)-3-(1-aziridino)-2-propanol] | – | – | – | – | – | – | – | surviving fraction ([1]; 8 mg/kg): 7.6 × 10^-3; surviving fraction ([1]; 30 mg/kg): 4.0 × 10^-3; surviving fraction ([1]; 50 mg/kg): 3.2 × 10^-3; surviving fraction ([1]; 80 mg/kg): 1.6 × 10^-3; MTD [6]: 80 mg/kg |
| O=[N+]([O-])c1nccn1CC(O)CNCCO (stereo not drawn) [RSU-1137, 1-(2-nitro-1-imidazolyl)-3-(2-hydroxyethylamino)-2-propanol, reference compound] | 70000 | – | 20 | 450 | ++ | – | – | CC90 [3, 9]: 3500 µM |
| O=[N+]([O-])c1nccn1CC(O)CN1CCCCC1 (stereo not drawn) [Ro03-8799, pimonidazole] | – | – | – | – | – | 1.0 | 3 × 10^-2 | – |
| O=C(Cn1ccnc1[N+](=O)[O-])NCCO [SR 2508, etanidazole] | – | – | – | – | – | 1.6 | 1.1 × 10^-2 | – |
